According to PubChem BioAssay AID1996:
In brackets after ≈: the same amount, converted by molar mass. Residues, ends and D or L forms follow the SMILES beside them. *: point of attachment. OBn = c1ccc(CO*)cc1

Conditions: buffer; pH 7.4; 200.0 µM

| Compound | solubility kinetic [µg/mL] |
| --- | --- |
| Cc1ccc(NC2=CC(=O)CC(C)(C)C2)cc1Cl | 16.2 (≈ 61.4 µM) |
| Cc1ccc(NC(=O)CNS(=O)(=O)c2ccc(F)cc2)cc1C | 6.7 (≈ 19.9 µM) |
| CCN(CC)S(=O)(=O)N1CCC(C(=O)NCc2ccco2)CC1 | > 51.5 |
| CCCCCn1c(=O)c(C(=O)Nc2cccc(C)c2)c(O)c2ccccc21 | < 0.4 |
| O=C(/C=C\c1ccc2c(c1)OCO2)CC1(O)C(=O)Nc2ccccc21 (stereo not drawn) | 24.6 (≈ 72.9 µM) |
| CN1CCN(C(=S)Nc2ccc(S(N)(=O)=O)cc2)CC1 | > 47.2 |
| CCCCNC(=O)NC(C(N)=O)P(=O)(OCC)OCC (stereo not drawn) | > 46.4 |
| O=C(NCCN1CCN(c2ccccc2)CC1)Nc1ccc(Cl)cc1 | 3.7 (≈ 10.3 µM) |
| COCc1cc(=O)oc2cc(NS(=O)(=O)c3ccc(C)cc3)ccc12 | 1.3 (≈ 3.62 µM) |
| O=C(Nc1ncc(Cc2cccc([N+](=O)[O-])c2)s1)c1ccco1 | 0.7 (≈ 2.13 µM) |
| Cc1ccc(S(=O)(=O)N2CCCC2)s1 | 32.3 (≈ 140 µM) |
| COc1cccc(NC(=O)COC(=O)/C=C/c2ccco2)c1 | 30.5 (≈ 101 µM) |
| COc1ccc(CC(=O)Oc2ccc(C#N)cc2)cc1 | > 40.1 |
| Clc1ccc(-c2cc(CN3CCOCC3)no2)cc1 | > 41.8 |
| CCOC(=O)C1=C(C)N(C)C(=S)N(C)C1c1ccc(OC)cc1 (stereo not drawn) | 19.8 (≈ 59.2 µM) |
| COc1cc(OC)cc(C(=O)Nc2ccc(N(C)C)c3ccccc23)c1 | < 0.4 |
| CCCCCCCCOc1ccc(C2CC(=O)NC2=O)cc1 (stereo not drawn) | < 0.6 |
| CCOC(=O)c1csc(-c2ccc([N+](=O)[O-])cc2)n1 | 5.6 (≈ 20.1 µM) |
| O=C1CSC(=S)N1c1ccc(O)cc1 | 28.1 (≈ 125 µM) |
| CCOc1ccc2[nH]c3c(NCCc4ccc(OC)c(OC)c4)ncnc3c2c1 | 5.9 (≈ 15 µM) |
| CN1C(=O)/C(=C2\SC(=S)N(CCCCCC(=O)O)C2=O)c2ccccc21 | 6 (≈ 15.4 µM) |
| CN(C)c1ccc(C2CC(=O)C=C(Nc3ccccc3N)C2)cc1 (stereo not drawn) | 48.2 (≈ 150 µM) |

| Compound | solubility kinetic [µg/mL] |
| --- | --- |
| CC(C)C(OC(=O)c1ccco1)C(=O)NC1CCCC1 (stereo not drawn) | > 41.9 |
| Nc1cc(=O)[nH]c(SCC(=O)Nc2cc(S(=O)(=O)N3CCCCCC3)ccc2Cl)n1 | 5.4 (≈ 11.4 µM) |
| O=C(NN1CCOCC1)c1ccc(Cl)c([N+](=O)[O-])c1 | > 42.9 |
| O=C(Nc1ccccn1)c1sc2cc([N+](=O)[O-])ccc2c1Cl | 1.7 (≈ 5.09 µM) |
| O=C1N=C(N2CCCCC2)S/C1=C\c1ccccc1F | 4.7 (≈ 16.2 µM) |
| O=C(Nc1ccnc(-c2ccncc2)n1)c1ccccc1Cl | 0.9 (≈ 2.9 µM) |
| O=C(CN1C(=O)NC2(CCCCC2)C1=O)Nc1ccc(Cl)cc1 | 11.3 (≈ 33.7 µM) |
| O=c1cc(/N=C/c2coc3cc(Br)ccc3c2=O)[nH]c(=S)[nH]1 | 3 (≈ 7.93 µM) |
| O=C(CC(=O)Nc1cccnc1)Nc1cccnc1 | > 38.4 |
| O=C(c1ccccc1)C1NC1c1ccccc1 (stereo not drawn) | 26.9 (≈ 120 µM) |
| Cn1c(=O)cc(Nc2ccc(Cl)cc2)[nH]c1=O | 8.7 (≈ 34.6 µM) |
| Cl.Fc1ccccc1CNC1CN2CCC1CC2 (stereo not drawn) | > 46.1 |
| CC1CCCCC1NC(=O)c1ccc2c(c1)OCCO2 (stereo not drawn) | > 41.3 |
| COc1ccc(/C=C/C(=O)N2CCN(c3ccccn3)CC2)cc1 | 13.9 (≈ 43 µM) |
| O=C(CSC(=S)N1CCSCC1)c1ccc(Cl)cc1 | < 0.7 |
| Cc1ccc(COc2ccc(C)nc2[N+](=O)[O-])cc1 | 1.2 (≈ 4.65 µM) |
| Cc1c(C=N)c(O)n(C)c(=O)c1C#N | > 28.7 |
| CN1CCN(C(=O)N(c2ccccc2)c2ccccc2)CC1.Cl | > 49.8 |
| C[C@H](Cc1ccccc1)Nc1ncnc2c1ncn2[C@@H]1O[C@H](CO)[C@@H](O)[C@H]1O | > 57.8 |
| CCOc1ccc2[nH]c3c(NCCC(C)C)ncnc3c2c1 | 0.6 (≈ 2.01 µM) |
| CC(=O)OCC[N+](C)(C)C.[O-][Cl+3]([O-])([O-])[O-] | > 36.8 |
| Cc1cc2nc(Cl)c(Cl)nc2cc1C | 0.6 (≈ 2.64 µM) |

| Compound | solubility kinetic [µg/mL] |
| --- | --- |
| O=C(/C=C/c1ccco1)N(Cc1ccc(Cl)cc1)C1CCS(=O)(=O)C1 (stereo not drawn) | 46.2 (≈ 122 µM) |
| Cc1ccc(NC(=O)CN2C(=O)NC(C)(c3ccc4c(c3)OCO4)C2=O)cc1 (stereo not drawn) | > 57.2 |
| COc1ccc(COC(=O)C2=C(C)NC(=O)NC2c2ccc(F)cc2)cc1 (stereo not drawn) | 3 (≈ 8.1 µM) |
| c1ccc(N2CCN(C3CC4CCC3C4)CC2)cc1 (stereo not drawn) | 27.1 (≈ 106 µM) |
| COc1ccc(OC)c(N=C(N)N=C(N)N)c1 | > 35.6 |
| CCOC(=O)C1CCCN(C(=S)Nc2ccc(S(=O)(=O)N3CCOCC3)cc2)C1 (stereo not drawn) | > 66.2 |
| COc1cc(OC)cc(C(=O)NC(C(=O)NCCc2ccccn2)C(C)C)c1 (stereo not drawn) | > 57.8 |
| Cc1ccc(C)c(S(=O)(=O)Nc2cc(C)on2)c1 | > 39.9 |
| COc1ccc(C(C)NC(=O)Nc2ccc(C(C)=O)cc2)cc1OC (stereo not drawn) | 47 (≈ 137 µM) |
| O=C(/C=C/c1ccc(Cl)c(Cl)c1)Nc1cccnc1 | 0.6 (≈ 2.05 µM) |
| CCON1C(=O)C(C)(C)N(OCC)C(=O)C1(C)C | > 38.7 |
| CCCCn1c(N)c(N(CC)C(=O)c2cccs2)c(=O)[nH]c1=O | 10.1 (≈ 30 µM) |
| CC(C)CC(=O)NC(=S)Nc1ccc(CN2CCOCC2)cc1 | > 50.3 |
| CC(=O)NCC(=O)N[C@@H](CC(=O)OCc1ccccc1)C(=O)OCc1ccccc1 (Ac-Gly-Asp(OBn)-OBn) | > 61.9 |
| CN(C)S(=O)(=O)c1ccc(=S)[nH]c1 | 12.2 (≈ 55.9 µM) |
| CC1SCC(=O)N(CC(=O)NC2CCCCC2)C1=O (stereo not drawn) | 37.9 (≈ 133 µM) |
| CCC(C)NC(=O)C1CCN(S(=O)(=O)N2CCOCC2)CC1 (stereo not drawn) | > 50 |
| O=[N+]([O-])c1ccc(-c2cn(-c3ccccc3F)c(=S)[nH]2)cc1 | 0.6 (≈ 1.9 µM) |
| CC(C)(C)C(O)(CC#CCN1CCCC1)c1ccccc1.Cl (stereo not drawn) | > 48.3 |
| CCCOc1c(Cl)cc(C(=O)NC)cc1OC | > 38.7 |
| COc1ccc(OC)c(NC(=O)COC(=O)COc2ccc(Nc3ccccc3)cc2)c1 | 15.7 (≈ 36 µM) |
| Nc1cc(S(=O)(=O)N2CCOCC2)ccc1N1CCCCC1 | 42.2 (≈ 130 µM) |

The next lines start with the values.

| solubility kinetic [µg/mL] | Compound |
| --- | --- |
| < 0.3 | O=C(Nc1nc2ccc(Br)cc2s1)c1ccco1 |
| 41.5 (≈ 123 µM) | COCCN1Cc2cccc(C(=O)NCCc3ccccc3)c2C1=O |
| < 0.3 | Cc1cc(NC(=O)c2cc(-c3cccc(OCC(C)C)c3)nc3ccccc23)no1 |
| 0.8 (≈ 2.8 µM) | CCOC(=O)C1=C(N)c2ccccc2CC1C1CCCC1 (stereo not drawn) |
| > 40.9 | Cc1cc(SCC(=O)NC2CC2)nc2ccccc12 |
| 7.8 (≈ 24.5 µM) | Cc1cnc(NC(=O)c2ccc(OCC3CCCO3)cc2)s1 (stereo not drawn) |
| > 44.8 | CC1CC(C)CN(C(=O)Cn2cc(C=O)c3ccccc32)C1 (stereo not drawn) |
| 11 (≈ 44.7 µM) | Cc1ccc(CSc2[nH]c(=O)ncc2C)cc1 |
| 18.4 (≈ 58 µM) | O=C(CCSCc1cccc(F)c1)NCCc1ccccc1 |
| > 53.6 | Cc1ccccc1C(=O)NC1CCN(CC(=O)NC2CCCCC2)CC1 |
| > 60.2 | CC(=O)Nc1cccc(C(=O)N2CCN(S(=O)(=O)Cc3ccccc3)CC2)c1 |
| > 41.5 | O=c1cc(CCl)nc2scc(-c3ccccc3)n12 |
| 6.6 (≈ 25.9 µM) | O=C(Nc1nc2ccccc2[nH]1)c1cccc(F)c1 |
| > 36.2 | N#C/C(C(N)=O)=C1/CCCN1Cc1ccccc1 |
| 4 (≈ 14.7 µM) | Cc1ccc(NC(=O)c2cc3c(s2)CCCC3)cc1 |
| 3.9 (≈ 13.1 µM) | O=C(Cc1ccc(Cl)cc1)Nc1cccc2ncccc12 |
| 46.1 (≈ 142 µM) | COc1cccc(C(=O)OCC(=O)N2CCc3ccccc3C2)c1 |
| > 45.8 | Cc1cccc(C)c1NC(=O)c1cnn(-c2ccccc2)c1C |
| > 42.9 | O=C(OCC(=O)N1CCCCC1)c1c[nH]c2ccccc12 |
| 24.2 (≈ 43.4 µM) | COc1cc(/C=C(\CCC(=O)O)c2nc3ccccc3s2)ccc1OCC(=O)Nc1c(Cl)cccc1Cl |
| 2.1 (≈ 6.94 µM) | O=C(Cn1c(=O)oc2ccccc21)Nc1cccc(Cl)c1 |
| 42.2 (≈ 126 µM) | CCOc1ccc(S(=O)(=O)NCC2CCCO2)c2ccccc12 (stereo not drawn) |
| 1.8 (≈ 5.08 µM) | CCOC(=O)c1cccc(NC(=O)CC2Oc3ccccc3NC2=O)c1 (stereo not drawn) |
| 6.4 (≈ 18.7 µM) | COc1ccc(OC)c(NC(=O)CC2Oc3ccccc3NC2=O)c1 (stereo not drawn) |
| > 47.3 | O=C(NC1CCCCC1)c1ccc(-n2cncn2)c([N+](=O)[O-])c1 |
| 28 (≈ 89.3 µM) | CC(=O)Nc1ccc(SCC(=O)c2cc(C)ccc2C)cc1 |

| solubility kinetic [µg/mL] | Compound |
| --- | --- |
| 36.8 (≈ 125 µM) | Cc1cccnc1NC(=O)CCCc1c[nH]c2ccccc12 |
| 36.5 (≈ 101 µM) | Cc1onc(-c2ccccc2)c1CNS(=O)(=O)c1cccc(Cl)c1 |
| > 36.2 | O=C(NCC(O)c1ccccc1)c1ccccc1 (stereo not drawn) |
| > 45.3 | CCOC(=O)CN1C(=O)NC2(CCCc3ccccc32)C1=O (stereo not drawn) |
| > 34.5 | CCC(C(=O)Nc1ccon1)c1ccccc1 (stereo not drawn) |
| > 47.1 | O=C(c1ccc2ncsc2c1)N1CCCC(C(F)(F)F)C1 (stereo not drawn) |
| 36.9 (≈ 149 µM) | CNC(=S)N1CCC(Cc2ccccc2)CC1 |
| > 43.6 | COc1ccccc1C(=O)NC1CC(C)(C)NC(C)(C)C1 |
| 14.8 (≈ 46.3 µM) | CCn1c(=O)c([N+](=O)[O-])c(N2CCSCC2)c2ccccc21 |
| > 47.9 | CNc1snc(C)c1C(=O)OCC(=O)N(C)c1ccccc1 |
| 4.9 (≈ 14.6 µM) | COc1ccc(NC(=O)c2ccco2)cc1NC(=O)c1ccccc1 |
| < 0.7 | O=S(=O)(c1cc(Cl)ccc1Cl)N1CCc2ccccc21 |
| 2.4 (≈ 8.59 µM) | C=CC(=O)Oc1ccc(N2Cc3ccccc3C2=O)cc1 |
| 42.7 (≈ 124 µM) | O=C(Nc1ccc(F)cc1F)N1CCN(CCc2ccccc2)CC1 |
| 15.8 (≈ 56.2 µM) | CC(C)n1c(NCc2ccccc2O)nc2ccccc21 |
| > 45.1 | CC1=NN(c2ccccc2)C(=O)C1/C=C1\NC(=S)NC1=O (stereo not drawn) |
| 42.1 (≈ 130 µM) | Cc1cccc(C(=O)N2CCCC(Nc3ccc(C)c(C)c3)C2)n1 (stereo not drawn) |
| 0.7 (≈ 2.24 µM) | COc1ccccc1C(=O)NC(=O)Nc1c(C)cc(C)cc1C |
| 3 (≈ 11.1 µM) | Cc1cc(=O)oc2cc(NC(=O)C3CCCC3)ccc12 |
| < 0.2 | Cn1c2ccccc2c2ncn(Cc3ccc(F)cc3)c(=O)c21 |
| > 57.1 | Cc1cccc(C)c1NC(=O)CN(C)CC(=O)N1CC(=O)Nc2ccccc21 |
| > 41 | COc1cc(NC(=O)Cc2ccccc2)nc(OC)n1 |
| 36.5 (≈ 76.9 µM) | CN(Cc1nc2ccccc2c(=O)[nH]1)C(=O)c1cccc(S(=O)(=O)N2CCc3ccccc32)c1 |
| 8.3 (≈ 34.4 µM) | CN1/C(=C/C(=O)C2CC2)C(C)(C)c2ccccc21 |
| > 43.6 | CCOC(=O)N1CCN(C(=O)CCc2ccccc2)CC1 |
| > 42.8 | O=C(/C=C/c1ccco1)NCC1COc2ccccc2O1 (stereo not drawn) |
